# From PMC10716780, “The multistep oxidation of cholesterol to pregnenolone by human cytochrome P450 11A1 is highly processive” (The Journal of Biological Chemistry, 2023)
# Where “and” joins values, the source holds several entries; their conditions need not be identical. Equal values may be shown once.
# Legend:
# human P450 11A1 [1] = target: T1, human P450 11A1 (Homo sapiens, UniProt P05108); experiment: Fluorescence titration of Alexa 488-Adx with P450 11A1 ± cholesterol; type: binding; parameters: M A S T R S P R P F N E I P S P G D N; Met-Ala (N-terminal start residues in place of the transit peptide and Ile40) (N); made in house; host or cells: E. coli (P450 11A1 in C41(DE3); Adx and AdR in E. coli)
# T1 sequence (P05108 41-521 limits assumed): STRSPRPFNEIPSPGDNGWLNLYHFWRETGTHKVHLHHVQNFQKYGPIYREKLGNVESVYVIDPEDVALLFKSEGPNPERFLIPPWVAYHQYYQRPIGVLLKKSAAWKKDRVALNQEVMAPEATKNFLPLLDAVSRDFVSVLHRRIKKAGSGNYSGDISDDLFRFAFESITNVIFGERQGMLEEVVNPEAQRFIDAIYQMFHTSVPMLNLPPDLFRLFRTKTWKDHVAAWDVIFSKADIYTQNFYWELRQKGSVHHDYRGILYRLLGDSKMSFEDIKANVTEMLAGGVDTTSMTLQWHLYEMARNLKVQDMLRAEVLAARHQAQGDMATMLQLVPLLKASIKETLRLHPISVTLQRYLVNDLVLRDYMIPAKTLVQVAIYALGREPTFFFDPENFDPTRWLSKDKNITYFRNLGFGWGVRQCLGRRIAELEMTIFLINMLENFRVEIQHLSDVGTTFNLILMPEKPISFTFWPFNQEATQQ
# T1 sequence (P00257 59-186 partner): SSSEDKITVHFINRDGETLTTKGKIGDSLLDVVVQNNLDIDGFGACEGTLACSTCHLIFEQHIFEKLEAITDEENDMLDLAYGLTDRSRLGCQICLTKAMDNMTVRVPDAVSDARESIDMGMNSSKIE
# Procedure: Because Adx has been reported to stimulate the binding of P450 11A1 to its substrates ([12], [44]), we examined whether the binding of detergent-free P450 11A1 to Adx is enhanced by cholesterol, utilizing our fluorescently-labeled Adx construct (Alexa 488-Adx) ([45]). A 1:1 M complex of P450 11A1 and cholesterol was gradually titrated into a solution containing Alexa 488-Adx (50 nM), and the quenching of Adx fluorescence was monitored over the course of the reaction.
# Figure 7 Effect of cholesterol on P450 11A1 binding to Adx.A, titration of P450 11A1 (0–400 nM) into Alexa 488-Adx (50 nM) gradually quenched the fluorophore and yielded a decrease in fluorescence output (between 500 and 600 nm). Spectra were collected after each addition of P450. B, normalized fluorescence (F/F0) of titrations of P450 11A1 with (▪, red) and without (•, black) cholesterol (equimolar). A 1:1 M complex of P450 and cholesterol was used as titrant, where indicated. […]
# A previously described Alexa Fluor 488-labeled Adx construct and experimental protocol were used ([45]) to perform the fluorescence titration of P450 11A1 with Adx. […] P450 11A1 was gradually titrated (0–0.4 μM) into the cuvette (to a maximum of 2% (v/v)), and spectra were recorded using an OLIS DM-45 spectrofluorometer (1.24 mm slit width) with fluorophore excitation at 493 nm and scanning emission spectra from 500 to 600 nm. […]
# human P450 11A1 [2] = target: T1, human P450 11A1; experiment: Kinetic isotope effect assay, disappearance of d0- and d3-cholesterol under single-turnover conditions; type: biochemical; parameters: M A S T R S P R P F N E I P S P G D N; Met-Ala (N-terminal start residues in place of the transit peptide and Ile40) (N); made in house; host or cells: E. coli (P450 11A1 in C41(DE3); Adx and AdR in E. coli); conditions: 5 μM P450, 5 μM sterol, exponential decay fit
# Procedure: P450 11A1 incubations were performed under (low Adx) single-turnover conditions (5 μM P450, 5 μM cholesterol; see Experimental procedures) with d0- (authentic, unlabeled) and d3-cholesterol, and the disappearance of each was monitored by LC-atmospheric pressure chemical ionization-MS (m/z 369.3516 and 372.3705, respectively). In theory, if C-H bond breaking were rate-limiting in the initial hydroxylation then the rate of d3-cholesterol consumption would be slower relative to the d0 compound due to the increased strength of a C-D bond.
# The kinetic isotope experiment was designed similarly to the benchtop experiment described above, but with some modifications. P450 11A1 (5 μM) was reconstituted with the redox partners AdR (10 μM) and Adx (5 μM) on ice (10 min) prior to dilution in potassium Hepes (50 mM, pH 7.4) and H2O and addition of d3-cholesterol substrate (5 μM). The mixture was preincubated (5 min) prior to initiation with NADPH (2.5 mM, from 25 mM in potassium Hepes (50 mM, pH 7.4)) thus bringing all components to their desired final concentrations. After completing the desired incubation time, an aliquot (500 μl) was removed from the incubation and added to vials containing CH2Cl2 (5 ml) and the vials were mixed with a vortex device and placed on ice. The quenched reactions were centrifuged (10^3g, 5 min, 23 °C) to separate layers, and the organic (bottom) layers were removed (4 ml) and transferred to fresh glass vials. The extraction process was repeated and the two extracts (2 × 4 ml) from each sample were combined to maximize product recovery. Samples (8 ml) were brought to dryness under a stream of nitrogen, and the dried residues were dissolved in CH3OH (25 μl) and transferred to autosampler vials for analysis.
# Samples (held at 4 °C) were injected (10 μl) using a Waters Acquity UPLC system on a Acquity BEH octadecylsilane (C18) 2.1 mm × 50 mm (1.7 μm) UPLC column (held at 25 °C) with a flow rate of 0.5 ml min^−1 using an isocratic mobile phase of CH3CN (only). The column eluate was subjected to atmospheric pressure chemical ionization and analyzed using a Thermo Fisher Scientific LTQ XL Orbitrap mass spectrometer instrument operating in positive mode, scanning from m/z 100 to 500, with a resolution setting of 120,000. Data were processed using Xcalibur QualBrowser (Thermo Fisher Scientific) software (version 2.0.7; https://www.thermofishcer.com/order/catalog/product/OPTON).
structure (smiles),measurement,setting,value
CC(C)CCC[C@@H](C)[C@H]1CC[C@H]2[C@@H]3CC=C4C[C@@H](O)CC[C@]4(C)[C@H]3CC[C@]12C [Cholesterol],stimulation of binding of P450 11A1 to Adx,human P450 11A1 [1]; equimolar cholesterol,~5 fold and ~4.5 fold
same,change in Gibbs free energy of Adx binding,human P450 11A1 [1]; from the 4.5-fold change in Kd,< 1 kcal/mol
same,rate of disappearance,human P450 11A1 [2],0.035 s⁻¹
